The values below come from patent US20130184290A1, “SELF-EMULSIFYING FORMULATIONS AND METHODS OF USE THEREOF” (CAPSUGEL, Inc., priority 2011, published 2013).

For data set [1], the system named is Caco-2 cells. Briefly: Apparent intestinal permeability, Caco-2 cell model. The format is in vitro ADME. To be noted: for Papp R3: replicate 3. The text has this: (§1) Absorption of particular drugs may be limited by biological factors, such as reduced cellular permeability in the intestine. Many cellular mechanisms can influence permeability, such as reduced passive paracellular and transcellular transport or increased active export by the efflux transporter protein P-glycoprotein. Thus, the use of self-emulsifying carriers may not be beneficial for drugs having limited cellular permeability, where methods to increase the solubilization of a drug may not increase its permeability in the gastrointestinal tract. Experiments were conducted to assess the apparent intestinal permeability of compound 1 using a Caco-2 cell model.
(§2) Briefly, Caco-2 cells were used as an in vitro model for predicting absorption through the intestinal epithelium. Confluent monolayers of Caco-2 cells were grown on collagen-coated, microporous, polycarbonate membranes (12-well Costar Transwell® plates) that are placed between two chambers. The apical side of the monolayer was exposed to the buffer solution in a first chamber, but the basolateral side of the monolayer adhered to microporous membranes fluidically connected to a second chamber. The dosing solution was added to the first chamber for measurements in the apical-to-basolateral direction (A-to-B) and to the second chamber for measurements in the basolateral-to-apical direction (B-to-A). […] The permeability assay buffer was Hanks Balanced Salt Solution containing 10 mM HEPES and 15 mM glucose at a pH of 7.4. The buffer in the receiver chamber also contained 1% bovine serum albumin. The dosing solution concentration was 1 μM of compound 1 in the assay buffer. All donor chambers were first pre-incubated for five minutes with dosing solution to attempt to saturate any non-specific binding sites on the device with test compound. After five minutes, the solution was removed and replaced with fresh dosing solution, and time was recorded as 0. Cell monolayers were dosed on the apical side/first chamber (for A-to-B measurements) or basolateral side/second chamber (for B-to-A measurements) and incubated at 37° C. with 5% CO2 in a humidified incubator. At 30 and 60 minutes, aliquots were taken from the receiver chambers and replaced with fresh assay buffer. Samples were taken from the donor chamber at 0 and 60 minutes. Each experiment was performed in triplicate.
(§3) The apparent permeability (Papp), percent recovery, and efflux ratio were calculated as follows: […]
(§4) is the slope of the cumulative concentration in the receiver chamber as a function of time; V, [cm^3] is the volume of the receiver chamber; Vd [cm^3] is the volume of the donor chamber; A [cm^2] is the area of the cell monolayer, which is estimated to be about 1.13 cm^2 for the 12-well Costar Transwell® plates; C0[μM] is the measured concentration in the donor chamber at t=0 hours; CN [μM] is the nominal concentration of the dosing solution; Cr,final [μM] is the cumulative concentration in the receiver chamber at the end of the incubation period; and Cd,final [μM] is the cumulative concentration in the donor chamber at the end of the incubation period.
(§5) Thus, absorption of compound 1 in humans is not expected to be permeability limited.
(In general: Caco-2 monolayers are a common model of the intestinal barrier.)

Assay in data set [2]: as above
In kind it is in vitro ADME. To be noted: human, Caco-2, pH 7.4.
Text: as §1, §2, §3, §4, §5

A short description of data set [3]: Previously determined solubility of compound 1. The format is physicochemical. From the text:
Compound 1 has the following previously determined characteristics: […]

The nature of data set [4]: Fed-fasted pharmacokinetics of compound 1 HCl salt. To be noted: for half-life: human, in vivo, po, read-out: t1/2 for absorption. In kind it is in vivo. From the text:
The fed-fasted pharmacokinetic data were collected using a “normal fat” meal consisting of toast with 1 pat of butter, a banana, 2% milk, apple juice, and Honey Nut Cheerios®, where the meal has about 501 calories with 99 calories from fat, 346 calories from carbohydrates, and 56 calories from protein; and using a “high fat” meal consisting of 2 eggs fried in butter, 2 strips of bacon, 2 slices of toast with butter, 4 ounces of hash brown potatoes and 8 ounces of whole milk, where the meal has about 1,000 calories with 500-600 calories from fat, 250 calories from carbohydrates, and 150 calories, from protein.

Data set [5] is described as follows: Tolerability of compound 1 doses. In kind it is in vivo. The note with it: doses of up to 1,600 mg. The text has this: Yet, compound 1 is also known to have decreased oral bioavailability in the fasted state, as compared to the fed state. Accordingly, the invention provides formulations to increase the oral bioavailability or to reduce patient-to-patient variability in pharmacokinetic behavior of compound 1, compound 2, or a salt thereof. These formulations include use of a self-emulsifying carrier system to provide stable emulsions capable of dissolving therapeutically effective amounts of compound 1, compound 2, or a salt thereof.

A short description of data set [6]: Previously determined hygroscopicity of compound 1. In kind it is physicochemical. To be noted: free base; at 70% relative humidity (RH). From the text: Compound 1 has the following previously determined characteristics:
(vi) hygroscopicity (for free base): 0.09% at 70% relative humidity (RH);

Data set [7] in a line: Physical stability, formulations having one carrier. The format is physicochemical.

Read-outs that look alike come from different tables or passages of the source.

By Papp A→B is commonly meant how fast a substance crosses the layer from the apical side. For orientation: Tmax means the time from dosing to the highest level. Regarding `O=C(CC(c1ccccc1)c1ccccc1)N1CCN(C(c2ccccc2)c2ccccc2)CC1` [Compound 1, 1-(4-benzhydrylpiperazin-1-yl)-3,3-diphenylpropan-1-one], the “Papp R3” value in data set [1] (A-to-B) is on record as 6.78 10^−6 cm/s; in data set [1] (B-to-A) it was 4.45 10^−6 cm/s. For the same compound, the permeability classification entry in data set [1] (based on Papp(A-to-B)) is “high permeability coefficient”. Also, the “efflux of compound 1” value in data set [1] (based on efflux ratio) is listed as “not considered significant”. In addition, the Papp A→B at 60 min, 1 μM in data set [2] (A-to-B, average) was over 1 ×10⁻⁶ cm/s. Also, the efflux ratio at 60 min, 1 μM in data set [2] (read-out: Efflux Ratio (Papp (B-to-A)/Papp (A-to-B))) is under 3. In addition, the “solubility in propylene glycol, ethanol, and tetrahydrofuran” value in data set [3] is given as “soluble”. The “solubility in water” value in data set [3] was “slightly soluble”. Further, the Tmax in data set [4] (fed state with high fat meal) lay in the range of 4 to 5 h; in data set [4] (fed state with normal fat meal), 2 to 5 h. For the same compound, the half-life in data set [4] (fasted state) was in the range of 0.05 to 0.17 h; in data set [4] (fed state with high fat meal), 0.8 to 2.8 h; in data set [4] (fed state with normal fat meal), 0.5 to 1.6 h. Moreover, the adverse effects result in data set [5] is “no adverse effects”. In addition, in data set [6], the hygroscopicity is 0.09%.
For Caprylic/capric glycerides, in data set [7], the “Physical Stability, one month” value is given as over 1 month; the “Physical Stability, one month (cells printed in weeks)” value was over 1 week; the “Physical Stability, one week” value is on record as over 1 week.
For the compound PEG 8 caprylic/capric glycerides, in data set [7], the “Physical Stability, one month” value is reported as over 1 month and the “Physical Stability, one week” value is listed as over 1 week.
